Data: patent US8461358B2, “Fluorescent probe for measuring protease” (The University of Tokyo, priority 2009, dated 2013)

Molecular target: T1, leucine aminopeptidase, LAP (Sus scrofa, UniProt P15145)
T1 construct: purchased SIGMA L5006-25UN; host or cells: porcine kidney (tissue-derived)
T1 sequence (P15145 1-963): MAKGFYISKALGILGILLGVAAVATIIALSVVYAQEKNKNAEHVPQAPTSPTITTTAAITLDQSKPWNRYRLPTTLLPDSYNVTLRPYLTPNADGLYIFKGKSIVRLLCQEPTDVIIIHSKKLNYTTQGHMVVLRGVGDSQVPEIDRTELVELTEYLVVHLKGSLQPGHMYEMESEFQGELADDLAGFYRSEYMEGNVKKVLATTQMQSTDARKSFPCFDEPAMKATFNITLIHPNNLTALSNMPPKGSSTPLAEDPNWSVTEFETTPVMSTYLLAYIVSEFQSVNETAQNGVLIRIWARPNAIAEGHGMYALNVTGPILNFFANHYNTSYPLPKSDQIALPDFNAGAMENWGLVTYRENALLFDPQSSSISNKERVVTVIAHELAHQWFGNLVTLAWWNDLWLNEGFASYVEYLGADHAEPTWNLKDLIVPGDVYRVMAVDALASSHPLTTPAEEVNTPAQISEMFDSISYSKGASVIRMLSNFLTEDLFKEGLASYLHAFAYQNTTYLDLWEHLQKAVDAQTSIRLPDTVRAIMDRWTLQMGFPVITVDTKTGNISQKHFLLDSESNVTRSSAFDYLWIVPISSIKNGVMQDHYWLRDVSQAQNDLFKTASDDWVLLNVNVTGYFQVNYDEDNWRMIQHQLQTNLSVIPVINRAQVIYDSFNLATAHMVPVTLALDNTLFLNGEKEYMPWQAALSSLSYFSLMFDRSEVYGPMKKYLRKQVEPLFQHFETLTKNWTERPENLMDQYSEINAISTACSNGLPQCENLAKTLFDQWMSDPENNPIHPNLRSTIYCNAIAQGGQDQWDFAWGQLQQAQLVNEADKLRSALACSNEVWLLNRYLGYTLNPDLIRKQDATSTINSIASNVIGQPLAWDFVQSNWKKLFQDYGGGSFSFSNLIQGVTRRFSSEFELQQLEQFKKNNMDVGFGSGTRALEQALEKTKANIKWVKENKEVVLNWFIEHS
Assay: Enzymatic reaction of probe with leucine aminopeptidase, fluorescence/absorption readout
Assay type: biochemical, porcine
Conditions: 5 μM compound
Description: Compound (2) (Leu-RhoHM) and Compound (3) (γGlu-RhoHM) formed by bonding acyl residues derived from leucine and glutamic acid to one amino group of Compound (1) (RhoHM), respectively, were each dissolved in a neutral phosphate buffer, and reacted with a protease (leucine aminopeptidase, LAP, porcine kidney, SIGMA L5006-25UN) and γ-glutamyl transpeptidase (GGT, equine kidney, SIGMA G9270-100UN). Specifically, 3 μL of a […] solution of each compound in dimethyl sulfoxide (DMSO) was dissolved in 3 mL of a 0.1 M sodium phosphate buffer (pH 7.4) at a final concentration of 5 μM, and each of LAP (0.15 U) and GGT (1.1 U) was added to the solution to allow an enzymatic reaction at 37° C. The excitation wavelength was 501 nm.
Further, each of the DMSO solutions of both compounds (5 mM) in a volume of 3 μL was dissolved in 3 mL of a 0.1 M sodium phosphate buffer (pH 7.4) at a final concentration of 5 μM, and the enzymatic reaction was performed at 37° C. The values of fluorescence intensity observed with each amount of the enzymes 1 minute (Leu-RhoHM) or 9 minutes (γGlu-RhoHM) after the addition of the enzyme were plotted. The excitation wavelength was 501 nm, and the fluorescence emission wavelength was 524 nm.
Enzyme specificity of Compounds (2) and (3) was examined. Each of the DMSO solutions (3 μL) was dissolved in 3 mL of a 0.1 M sodium phosphate buffer (pH 7.4) at a final concentration of 5 μM, and LAP (0.4 U) was added to the solution to perform the enzymatic reaction at 37° C.

## CC(C)C[C@H](N)C(=O)Nc1ccc2c(c1)Oc1cc(N)ccc1C21OCc2ccccc21 (stereo partly drawn) [Compound (2)]
0.1 M sodium phosphate buffer pH 7.4, LAP 0.15 U, 37° C., excitation 501 nm
  change of absorption and fluorescence intensity on reaction with LAP: prompt marked increase of absorption and fluorescence intensity
0.1 M sodium phosphate buffer pH 7.4, LAP 0.4 U, 37° C.
  change of fluorescence intensity after reaction with LAP (enzyme specificity): marked increase of fluorescence intensity
pH 7.4, 37° C., 1 minute after addition of the enzyme, excitation 501 nm, emission 524 nm
  fluorescence intensity versus added LAP amount: linear increase of fluorescence intensity
